From patent US10801023B2, “Methods of identifying biologically active random peptides in plants and libraries of plants expressing candidate biologically active random peptides” (University of Florida Research Foundation, Inc., priority 2015, dated 2020)

How the values were obtained:
Arabidopsis plants [1] = assay: Plant growth and phenotyping of PEP6 / PEP12 transgenic plants; assay type: in vivo, Arabidopsis thaliana; details: transgenic plant in soil; normal-sized plants 25 mm to 30 mm
Description: Two libraries encoding six- and twelve-random amino acid cyclized peptides (denoted PEP6 and PEP12, respectively) were constructed in binary vectors (as illustrated in FIG. 9) using a Gateway cloning strategy and transformed into Arabidopsis. More than 1,500 transgenic plants with the PEP6 T-DNA inserts were isolated and more than 600 transgenic plants were isolated carrying the PEP12 insert, representing a survival ratio of 1.8% and 1.2% respectively under kanamycin selection. To ensure library representation in the population, DNA was prepared from at least fifty transgenic plants, including ten that had small rosette diameter (5 mm to 10 mm) (e.g., those having BARP sequences SEQ ID NO: 14, 16, 6, 19, 21, 23, 26, 28, 30, and 32) compared to normal-sized plants (25 mm to 30 mm; see Table 2). The nucleotide sequences of all amplified random peptide open reading frames (rpORFs) were different, indicating representation of library diversity was maintained throughout the cloning and transformation process. Several phenotypes were visually apparent. […] Some plants showing multiple growth defects were recorded in each phenotype. Bolting plants with multiple inflorescences were transformed with the PEP6 or PEP12 destination library through the floral dipping method (Clough and Bent, 1998, incorporated herein by reference). For selection, seeds were surface sterilized by 70% ethanol for 5 min and 10% bleach for 20 min. Surface-sterilized seeds were plated on ½× MS basal medium with 0.5% Phyto Agar (cat. # M10200 and # A20300, Research Products International) and 50 μg/ml kanamycin for selection. Transgenic seedlings were identified by GFP expression or resistance to kanamycin. Transformed seedlings were grown to the 3-5 true leaf stage on plates and transferred to soil. DNA was extracted from each seedling (Edwards et al., 1991 incorporated herein by reference) for inserted nucleotide sequence identification. An approximately 500 bp DNA fragment containing the random peptide ORF and part of pK7WG2D vector sequence was amplified using primers PEP-F and PEP-R (SEQ ID NOs: 35 and 36, respectively) listed in Table 4 and sequenced. Arabidopsis plants were grown in soil at 20° C. under 16 hour light/8 hour dark conditions. The characterization of phenotypic variations was based on the comparison among seedlings grown in the same pot or flat.

Arabidopsis plants [2] = assay: Flowering time measurement; assay type: in vivo, Arabidopsis thaliana
Description: The rpORF were cloned from this seedling PEP6-15 and retransformed into Col-0. A total of 15 independent transgenic lines were isolated and measured on their flowering time. About 75% independent lines had earlier flowering time compared to wild type plants. Thereafter three representative lines 1, 2 and 3, were chosen for detailed analyses (FIG. 11A). […] Thus, the BARP for PEP6-15 (SEQ ID NO: 6, nucleotide sequence SEQ ID NO: 17) appears to produce an earlier flowering time phenotype. […] Three independent PEP6-15 transgenic lines with no transgene segregation were grown directly in soil for the measurement of flowering time. Every line was planted in three 10 cm×10 cm×11 cm pots, and approximately twenty seeds were sown in each pot. The flowering time was recorded as the number of rosette leaves when the inflorescence stem was 0.5-1 cm long. When the majority of plants had flowered, measurement was concluded.

[3] = system: Arabidopsis thaliana plants; assay: Quantitative analysis of flowering time of CBF6AA-15 transformant lines; assay type: in vivo; details: lines 26, 29, 31 versus wild type Col-0
Description: FIG. 4A is a digital image comparing a wild type A. thaliana plant with 3 separate lines transformed with the 6AA-15 BARP. A bar graph comparing the number of rosette leaves for each line at the time of flowering is illustrated in FIG. 4B. FIGS. 4C-4F are a series of graphs illustrating quantitative analysis of flowering time for the plant lines illustrated in FIG. 4A, with a minimum of 113 plants analyzed per line.
The observed phenotype was also confirmed by the observed number of rosette leaves present on the plant at the time of flowering, where transformants flowered days earlier and after producing fewer leaves. […] A minimum of 113 plants were analyzed per line, and the number of days until flowering was recorded. FIGS. 4C-4F illustrate the distribution of flowering times of wild type plants vs. the three transformant lines, with the mean shifting from 36 days in wild-type plants to […] in the transgenic lines.

[4] = system: Arabidopsis thaliana plants; assay: Independent replication of peptide-induced phenotypes in independent transformant lines; assay type: in vivo; details: BARP sequence re-introduced into Arabidopsis thaliana
Experimental: A number of first-transformed generation plants were prepared and phenotypes were observed using the methods described in Example 1, above. In this example some 12-amino-acid-long candidate BARPs were also synthesized and tested. The procedures were the same as for the 6-aa BARPs described in Example 1. These phenotypes were also observed to be stable and inherited in subsequent generations. To verify that the effects observed are due to the expressed peptide and not to other less-likely positional/insertional causes, in this Example, a substantial number of the of the candidate 6 and 12 amino-acid-long BARPs were sequenced and separately transformed into independent plants. […] One microliter was used in a PCR reaction under standard conditions, and using primers corresponding to the attachment (recombinational cloning sequences) of the Gateway vector, the corresponding BARP sequences was amplified. This sequences were then recombined into the pDONR222 vector and then re-ligated into the binary pKWDG2 over-expression vector as described above. This sequence was then re-introduced into Arabidopsis thaliana plants using the floral dipping strategy and selection as noted above. The seedlings were then analyzed for the phenotype as defined by the original transformant. Recapitulation of the phenotype in multiple, independent transformation events provided high evidence of a specific physiological effect of the peptide.

[5] = system: Arabidopsis thaliana plants; assay: Screening of library of transformed plants expressing candidate BARPs for new phenotypes; assay type: in vivo; details: transgenic Arabidopsis thaliana expressing the BARP, scored from emergence to senescence
Description: In the present example, the methods of the present disclosure were used to generate a library of test nucleic acids encoding a plurality of candidate BARPs, each having a core 6 amino acid random peptide sequence flanked by two cysteine residues. The sequences were also flanked by start and stop codons and Gateway® sequences, such as illustrated in FIG. 1. PCR was used with primers corresponding to the known Gateway flanking sequences to generate the test nucleic acid library. The oligonucleotides were then cloned into bacterial vectors including genes for kanamycin resistance to create a recombination vector library. The vectors were then moved to Agrobacterium tumefaciens strain […] and used to transform Arabidopsis thaliana plants. Seeds were collected from the transformed plants and used to grow new plants. These plants were observed from seedling through the plant lifecycle and observed for new phenotypes. Several new phenotypes emerged, DNA was extracted from the plants displaying new phenotypes, and the sequence of the candidate BARP from the plants was determined. The procedures and results are described in detail below.
The test nucleic acid sequences were synthesized using conserved initiator and terminator sequences flanking 18 random nucleotides, which provides a peptide that is ten amino acids long, with six of the core amino acids randomized, following a Met-Ala-Cys and ending with a Cys-term. This template is illustrated in FIG. 1. In the present example, the corresponding nucleic acid sequence was […] (SEQ ID NO: 5; nucleotides 14-46 of SEQ ID NO: 1). The cysteine residues in this case provide potential for formation of disulfide bonds that may impart additional structure to the adjacent amino acid loop. Although in this example 18 random nucleotides (identified as “N” in SEQ ID NOs: 1 and 5) were used, any number may be used, as long as it is a multiple of three.
To construct the library of random-core BARP sequences, the above DNA sequence was synthesized as an oligonucleotide sequence, along with flanking sequences corresponding to the Gateway® recombination sequences. The middle portion of the sequence, represented by “N” in FIG. 1, were randomized nucleotides. Known synthesis techniques were used to build the sequences, resulting in a library of PCR products containing test nucleic acid sequences (start codon, spacer codon, cysteine codon, 18 random nucleotides encoding a core candidate BARP sequence, second cysteine codon, and stop codon) flanked by Gateway recombination sequences. Although Gateway® sequences were used in the present examples, other recombination cloning primer sequences could be used or specifically designed.
The library of PCR products containing random test sequences was amplified using PCR based on flanking primers containing Gateway recombination sequences. These reactions produced a population of PCR products each containing the core peptide test sequence flanked by Gateway recombination sequences. These PCR products were introduced to the vector pDONR222 using Gateway recombination, and then transformed into E. coli genotype DH5α. The transformation vector also included the NPTII gene for kanamycin resistance. The E. coli cells were plated on kanamycin plates at low density to obtain single-colony separation. The single colonies each contained a separate plasmid bearing a random peptide sequence.
The colonies were recovered from plates in liquid medium, and the plasmids were isolated. The isolated plasmids represented a library of many independent, random sequences (encoding candidate BARPs) flanked by ‘start’ and ‘stop’ sequences. […]

Arabidopsis seedlings = assay: Effects of lethal sequences: growth of PEP6-3 seedlings with or without sucrose; assay type: in vivo, Arabidopsis thaliana
Description: If these seedlings were transplanted to media supplemented with 2% sucrose some of them survived. These surviving seedlings were genotyped. One of these seedlings grew on a sucrose plate for one month and in soil for another 2 months before bolting and setting seeds. The rpORF was re-cloned and transformed into Col-0 Arabidopsis to generate independent transformation lines. […] The T2 seeds from the original line and 5 independent lines were sown on a ½ MS plate with or without sucrose under kanamycin selection. Seeds on both types of media germinated at a rate of 95%. […] The effect of the peptide was tested in petunia. […] Thus, the BARP for PEP6-3 (SEQ ID NO: 14, nucleotide sequence SEQ ID NO: 13) appears to produce phenotype that requires sucrose media.
It is possible that the phenotypes observed were not related to the peptide sequence, but instead were artifacts of T-DNA integration, since insertion of the CaMV35S-bearing T-DNA cassette could potentially disrupt a gene where an effect could be observed in its heterozygous form, or the viral promoter could activate expression of neighboring genes, resulting in an observable phenotype. Thus, to generate a series of independent transformants for each sequence of interest, the random peptide ORFs from transgenic plants showing aberrant phenotypes were amplified using attB universal adaptor primers, and cloned into pDONR222 and pK7WG2D vectors via BP and LR reactions, respectively. These constructs were then transformed into Arabidopsis to generate additional independent transgenic lines. Each series of independent transgenic lines containing the same random peptide ORF were grown under the same conditions used to produce the original phenotype. Transcript abundance of the random peptide ORF and the control gene Ubiquitin family protein (UFP, At4g01000) in every transgenic line was analyzed by semi-quantitative RT-PCR using attB1 and attB2 adaptor primers or UFP-rF and -rR primers (SEQ ID NOs: 37-38), respectively.
The seedling was moved to media containing sucrose where it then developed normally. Five independent lines (1, 2, 3, 4 and 6) containing the PEP6-3 sequence (SEQ ID NO: 13) were grown under kanamycin selection on ½ MS medium with or without the supplement of 2% sucrose in dark for the first 7 d and then exposed to light. Without sucrose, some seedlings with only the two cotyledons or the first two true leaves died eventually, and only a few seedlings fully developed. The proportion of seedlings developed with the first two true leaves or fully developed was recorded.

Petunia hybrida = assay: Petunia transformation with PEP6-3; assay type: in vivo; details: five independent transgenic shoots, versus controls
Experimental: PEPS-3 was introduced into Petunia hybrida by Agrobacterium tumefaciens-mediated transformation of leaf fragments, following a modified protocol by Jorgensen et al, (1996), incorporated herein by reference. Leaves were dissected into 4×5 mm fragments and immersed in Agrobacterium solution for 15 min, then transferred to MS agar plates supplemented with TDZ (1 μg/mL), galacturonic add (212 μg/mL) and acetosyringone (8 μg/mL). After 2 d in darkness, explants were transferred to MS medium containing TDZ (1 μg/mL), carbenicillin (500 μg/mL) and kanamycin (150 μg/mL) for two weeks. Callusing explants were then transferred to light on MS medium containing only antibiotics. After the appearance of shoots, these were transferred to MS medium containing antibiotics and IBA (0.8 μg/mL), for root formation.

[6] = ½ MS plate without sucrose, kanamycin selection, T2 seeds

Sequence | rosette size (Arabidopsis plants [1]) | bolting earlier than Col-0 (Arabidopsis plants [2]; lines 1, 2 and 3, inferred from rosette leaf number) | number of rosette leaves when bolting (Arabidopsis plants [2]; lines 1, 2 and 3, 16 hour light/8 hour dark, Col-0 11.5) | number of rosette leaves at the time of flowering [3] | phenotype in independent transformant lines [4] | phenotype [5] | size of independent transgenic lines (Arabidopsis seedlings; 20 independent transgenic lines versus control lines) | development of germinated seeds on sucrose plates (Arabidopsis seedlings; ½ MS plate with 2% sucrose) | germination rate (Arabidopsis seedlings; ½ MS plate with or without sucrose (both types of media)) | transgenic seedlings forming true leaves (Arabidopsis seedlings; [6]) | transgenic seedlings growing into fully-developed plants (Arabidopsis seedlings; [6]) | growth of transgenic petunia shoots (Petunia hybrida)
MACDFNFGIC (chemically synthesized peptide sequence of BARP CBF6AA-15 associated with early flowering behavior) | 5 mm | 3 to 4 days | 10 rosette leaves | fewer number of leaves at the time of flowering than the wild type | significant early-flowering phenotype | tiny, slightly early flowering | – | – | – | – | – | –
MACRGVDSAC (chemically synthesized peptide sequence of BARP PEP6-3) [BARP producing sucrose dependent phenotype] | 5 mm | – | – | – | – | – | grew smaller than control lines | grew into fully-developed plants | 95% | < 30% | < 10% | grew slowly compared to controls before turning pale and dying after several weeks
